{"source": "paper PMC6627331", "about": "“Identification of Small Molecule Inhibitors of Staphylococcus aureus RnpA” (Antibiotics, 2019)", "key": {"[1]": {"biological_target": "T1, S. aureus RNase P (RnpA + rnpB) (Staphylococcus aureus, UniProt P0A0H5)", "T1 construct": "hexahistidine (His6) (N); made in house; host or cells: E. coli BL21 (DE3), plasmid pEXP5-nt", "T1 sequence (P0A0H5 1-117)": "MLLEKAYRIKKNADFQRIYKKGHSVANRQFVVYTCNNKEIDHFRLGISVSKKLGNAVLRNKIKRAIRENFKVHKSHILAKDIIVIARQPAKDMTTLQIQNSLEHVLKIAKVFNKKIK", "experiment": "RnpA-dependent RNase P in vitro ptRNA^Tyr processing assay", "assay_type": "biochemical", "details": "in vitro ptRNA^Tyr processing; read-out: Processing IC50", "protocol": "S. aureus RNase P activity assays were performed according to conditions described previously. Briefly, ptRNA^Tyr and rnpB RNA species were first denatured by heating to 95 °C for 5 min then slow cooled to room temperature. RNase P was reconstituted by mixing an equal molar ratio of rnpB and RnpA for 15 min at 37 °C. Precursor tRNA processing inhibition reactions were performed by mixing 1.25 pmol of reconstituted RNase P (RnpA + rnpB) with an equal volume of 2× low salt buffer (50 mM Tris-HCl pH 8.0, 5 mM MgCl2) in the presence of DMSO (negative control) or the indicated compound (≤500 µM) and incubated for 5 min at 37 °C. 5 pmol ptRNA^Tyr was added and the mixture was incubated at 37 °C 15 min. Reactions were stopped by adding 2× RNA loading dye and heating at 65 °C for 10 min. Each sample was electrophoresed in a 7 M urea/8% polyacrylamide gel then stained with ethidium bromide. The Biorad EZ Gel Doc imaging system was used to visualize the RNA and relative abundance of the mature tRNA^Tyr band (% processing) in the negative control or in samples containing the indicated compounds and analyzed using Biorad Image Lab densitometry software. The inhibitory activity of the indicated compounds were calculated as a % inhibition using the following equation: […].\nTo assess IC50, % RNase P processing inhibition was plotted against compound concentration and a linear best fit equation was generated to calculate the IC50."}, "HepG2 cells": {"tested_on": "HepG2 cells", "experiment": "MTT human cell cytotoxicity testing", "assay_type": "cell-based", "details": "SAR figures; 4× MIC exposure for 24 h", "protocol": "Human HepG2 hepatocytes were seeded in individual wells of a 96-well cell-culture treated microtiter plate at a concentration of 1 × 10^5 cells per well and incubated in Dulbecco’s Modified Eagle Medium (DMEM) supplemented with 10% fetal bovine serum at 37 °C with 5% carbon dioxide overnight. Cells were then treated with DMSO (negative control) or the indicated agent for 24 h. MTT Cell Proliferation Assay Kits were used to assess viability according to the manufacturer’s recommendations (American Type Culture Collection; Manassas, VA, USA)."}, "[2]": {"tested_on": "norA mRNA in S. aureus UAMS-1 cells", "experiment": "Cellular norA mRNA turnover (qRT-PCR after rifampin arrest)", "assay_type": "cell-based, Staphylococcus aureus", "details": "0.5× MIC for 30 min; 5 min post-transcriptional arrest; mock 99%", "protocol": "S. aureus mRNA half-life determinations were performed as previously described. […] Rifampin (Sigma-Aldrich) was added to the culture at a final concentration of 200 μg·mL^−1 to inhibit de novo transcript synthesis. Half of the culture was immediately removed and combined with an equal volume of ice cold acetone:ethanol (1:1 v/v). The remaining culture was returned to the shaking 37 °C incubator for an additional 5 min and then subsequently combined with an equal volume of ice cold acetone:ethanol (1:1 v/v) and stored at −80 °C until processing, as described below.\nFor total bacterial RNA isolation, cell suspensions were thawed on ice, centrifuged at 3000 rpm for 10 min at 4 °C, the resulting cell pellets were resuspended in ice-cold TE buffer (10 mM Tris-HCl, pH 8.0, 1 mM EDTA), and transferred into a FastPrep bead beater tube containing 0.1 mm silica spheres (MP Biomedicals; Santa Ana, CA, USA). Mixtures were homogenized at 5 m·s^−1 for 20 s, rested on ice for 5 min, and then homogenized again at 4.5 m·s^−1 in a FastPrep-24 instrument. Cellular debris were collected by centrifugation at 13,000 rpm for 15 min at 4 °C, whereas bacterial RNA was isolated from the supernatant using Qiagen RNeasy Mini Kits and miRNeasy Mini Kits were used to isolate total bacterial RNA, following the manufacturer’s instructions. RNA quantity and quality were measured using a NanoDrop 2000 spectrophotometer (ThermoFisher Scientific). For qRT-PCR, 1 μg of total bacterial RNA was treated with 3 units of DNase I (Ambion; Carlsbad, CA, USA) for 1 h at 37 °C to remove any DNA contaminants. RNA cleanup was performed using the Qiagen RNeasy Mini Kit. Subsequently, the BioRad iScript cDNA Synthesis Kit (Hercules, CA, USA) was used to convert 200 ng of RNA into cDNA, which was amplified using the BioRad iQ SYBR Green Supermix per the manufacturer’s instructions and fluorescence was read on the Biorad CFX 96 Connect machine. Transcript levels were compared to the internal control 16S rRNA (ΔΔCt method), and plotted as a fold change compared to control. The following primer pairs were used in this study for qRT-PCR: norA forward—[…] and norA reverse-[…] CTAAG; -15 ptRNA^Tyr forward-[…] and tRNA^Tyr reverse-TGGTG […]; 16S rRNA forward-[…] and 16S rRNA reverse-[…]."}, "S. aureus USA300": {"tested_on": "S. aureus USA300", "experiment": "MIC against clinical strain USA300", "assay_type": "cell-based, Staphylococcus aureus"}, "E. coli": {"tested_on": "E. coli", "experiment": "Antimicrobial activity toward E. coli", "assay_type": "cell-based, Escherichia coli"}, "[3]": {"tested_on": "S. aureus strain UAMS-1, USA300 or BAA-1708", "experiment": "Selection of spontaneous resistant cells in liquid culture", "assay_type": "cell-based, Staphylococcus aureus", "details": "24 h incubation in liquid culture, 2× MIC"}, "S. aureus UAMS-1": {"tested_on": "S. aureus UAMS-1", "experiment": "Galleria mellonella model of S. aureus infection", "assay_type": "in vivo", "details": "10^4 CFU UAMS-1, single dose 100 mg·kg^−1 1 h post-infection, 16 h; DMSO 60%", "protocol": "An overnight culture of S. aureus strain UAMS-1 was used to inoculate (1:100 dilution) 25 mL of fresh MH medium and growth at 37 °C on a rotary shaker at 225 rpm to exponential phase (~1 × 10^8 CFU mL^−1). Cultures were pelleted by centrifugation, washed with phosphate buffered saline (PBS), and re-suspended at ~1 × 10^7 CFU·mL^−1 in fresh PBS. G. mellonella larvae weighing 150–250 mg were inoculated with 5 µL of S. aureus into the last left proleg using a 10 µL Hamilton syringe. About 1 h after inoculation, one group of worms was treated with 2 µL DMSO as infected negative control; one group was treated with 2 µL JC2 compound at 100 mg/kg dose; another group was treated with 2 µL vancomycin at 100 mg/kg dose as standard-of-care comparison. Treatments were administered in the same manner as infection, except that each injection was in the next left proleg moving towards the head of the worm. […] In addition to the mock or compound treatment of infected larvae, a group of non-infected worm injected with DMSO or corresponding compounds were used to monitor the impact of physical trauma as well as observe toxicity associated with compound treatment."}}, "note": "Read-outs that look alike come from different tables or passages of the source.", "data": [{"smiles": "CC1CCCCN1C(=O)Nc1cc(Cl)cc(Cl)c1", "note": "(centres unmarked) [JC2]", "values": [{"measurement": "IC50", "setting": "[1]", "result": 200, "unit": "µM"}, {"measurement": "MTT = % HepG2 cell survival", "setting": "HepG2 cells", "result": 87, "unit": "%"}, {"measurement": "norA mRNA degradation", "setting": "[2]", "result": 27, "unit": "%"}, {"measurement": "MIC", "setting": "S. aureus USA300", "result": 0.5, "unit": "µg/mL"}, {"measurement": "MIC", "setting": "S. aureus USA300; Staphylococcus aureus, read-out: MIC", "result": 0.5, "unit": "µg/mL"}, {"measurement": "antimicrobial activity toward E. coli", "setting": "E. coli", "result": "did not shown antimicrobial activity"}, {"measurement": "selection of spontaneous resistant cells", "setting": "[3]", "result": "unable to select for spontaneous JC2 resistant"}, {"measurement": "mortality rate of S. aureus infected worms", "setting": "S. aureus UAMS-1", "result": 30, "unit": "%"}]}]}
